Strand notation (5' to 3'): a small letter for the sugar, then the base; units joined by * are phosphorothioate-linked, units joined directly phosphodiester-linked; [ ] holds rarer units or linkages, { } end groups; capitals alone tell only the bases. e = 2'-O-(2-methoxyethyl) (MOE); [5mC] = 5-methylcytosine; d = 2'-deoxy (DNA)
Legend:
[1] = Serum calcium concentration in mice treated with RANK antisense oligonucleotide, no PTH: dose response and delivery method (Table 11); assay type: in vivo, mouse
Description: In accordance with the present invention, antisense inhibition of the RANKL receptor, RANK, was evaluated in the short-term model of bone resorption. Serum calcium concentration was measured in mice treated with RANK antisense oligonucleotides at different doses, delivered by subcutaneous mini-pumps or subcutaneous injection.
ISIS 181071 ([…], SEQ ID NO: 356) is an antisense oligonucleotide targeted to mouse RANK. […] All cytidine residues are 5-methylcytidines.
Female Swiss-Webster mice (5-8 wks old), fed a low-calcium diet were treated with ISIS 181071 (SEQ ID NO: 356) for 15 days. The dose of oligonucleotide was either 30 mg/kg, 20 mg/kg, 10 mg/kg, 3 mg/kg, or 0.1 mg/kg administered by daily subcutaneous injections for the first five days, followed by mini-pump infusion for the remaining 10 days, or the dose was 10 mg/kg or 30 mg/kg administered daily by subcutaneous injection for the entire 15 day period. No PTH was administered to the mice that received oligonucleotide. A group of control mice were treated with either saline, PTH alone (1 ug/100 g/6 hr) or calcitonin (400 ng) plus PTH (1 ug/100 g/6 hr). After […] (total PTH delivery of 3 ug/100 g), blood samples were taken from the tail of the mice and the serum calcium concentration was measured with the Sigma Diagnostics Calcium Kit (Sigma-Aldrich). […] Thus, increase in serum calcium concentration is due to the PTH treatment rather than the oligonucleotide treatment.

[2] = Serum calcium concentration after PTH infusion in mice treated with RANK antisense oligonucleotide: dosing schedule study (Table 14); assay type: in vivo, mouse
Description: In accordance with the present invention, various antisense oligonucleotide dosing schedules were tested for their ability to inhibit serum calcium concentration increase resulting from PTH infusion.
Female Swiss-Webster mice (5-8 wks old) were fed a low-calcium diet. The mice were dosed with the same total amount of ISIS 181071 (SEQ ID NO: 356) (450 mg/kg), however the frequency of the dosage was varied. The first group received daily injections for […]. The second group received daily injections of 30 mg/kg/day for 5 days; the remaining 300 mg/kg was divided into 12 injections over 24 days and were administered every other day. The third group received daily injections of 30 mg/kg/day for 5 days; the remaining 300 mg/kg was divided into 8 injections over 24 days and were administered every third day. The fourth group received daily injections of 30 mg/kg/day for 5 days; the remaining 300 mg/kg was divided into 6 injections over 24 days and were administered every fourth day. Each group contained eight mice. Treatment with oligonucleotides was followed with infusion of PTH by subcutaneously implanted mini-pumps at a dose of 1 ug/100 g/6 hr. A control group received saline or PTH alone (1 ug/100 g/6 hr). After 24 hours of PTH infusion (total PTH delivery of 4 ug/100 g), the mice were sacrificed and the serum calcium concentration was measured with the Sigma Diagnostics Calcium Kit (Sigma-Aldrich). The data are shown in Table 14 and are the average of eight mice per group.

[3] = Serum calcium concentration after RANK antisense oligonucleotide treatment and PTH infusion: dose response and delivery method (Table 12); assay type: in vivo, mouse
Description: (§1) In accordance with the present invention, ISIS 181071 was evaluated for its ability to inhibit RANK expression and PTH-induced serum calcium concentration increase following 18 days of oligonucleotide treatment.
(§2) Female Swiss-Webster mice (5-8 wks old), fed a low-calcium diet, were treated for 18 days with ISIS 181071 (SEQ ID NO: 356) at different doses and through different delivery methods. The dose of oligonucleotide was either 30 mg/kg, 20 mg/kg, 10 mg/kg, 3 mg/kg, or 0.1 mg/kg administered by daily subcutaneous injections for the first five days, followed by mini-pump infusion for the remaining 13 days, or the dose was 10 mg/kg or 30 mg/kg administered daily by subcutaneous injection for the entire 18 day period. After 18 days of treatment with oligonucleotides, the mice were infused with PTH by subcutaneously implanted mini-pumps at a dose of 1 ug/100 g/6 hr. A group of control mice received saline, calcitonin (400 ng) plus PTH (1 ug/100 g/6 hr) or PTH alone (1 ug/100 g/6 hr). After 24 hours of PTH infusion (total PTH delivery of 4ug/100 g), the mice were sacrificed and measurements were made of serum calcium with the Sigma Diagnostics Calcium Kit (Sigma-Aldrich) and RANK mRNA expression in proximal tibia (as described in other examples herein). The results are shown in Table 12 are normalized to PTH treatment alone and are the average of four mice per group.

RANK mRNA [4] = assay: RANK mRNA expression in mouse proximal tibia after antisense oligonucleotide treatment and PTH infusion: time course (Table 13); assay type: in vivo; conditions: for RANK mRNA % inhibition (normalized to PTH) Proximal Tibia: then 24 h PTH
Description: In accordance with the present invention, ISIS 181071 was administered to mice for different time periods to evaluate its ability to inhibit RANK expression and PTH-induced serum calcium concentration increase as a function of oligonucleotide treatment time.
Female Swiss-Webster mice (5-8 wks old) were fed a low-calcium diet and received daily subcutaneous injections of 30 mg/kg of ISIS 181071 (SEQ ID NO: 356) for 2, 3, 5, 7, 10, 14, or 21 days. At the end of the oligonucleotide treatment period, mice were infused with PTH by subcutaneously implanted mini-pumps at a dose of 1 ug/100 g/6 hr. A group of control mice were dosed with either saline, PTH alone (1 ug/100 g/6 hr) or calcitonin (400 ug) plus PTH (1 ug/100 g/6 hr). Following 24 hours of PTH infusion (total PTH delivery of 4ug/100 g), the mice were sacrificed and measurements were made of serum calcium with the Sigma Diagnostics Calcium Kit (Sigma-Aldrich) and RANK mRNA expression in the proximal tibia (as described in other examples herein). Percent RANK mRNA inhibition is normalized to PTH alone treatment.

RANK mRNA [5] = assay: RANK mRNA expression in mouse proximal tibia after antisense oligonucleotide treatment and PTH infusion: dose response and delivery method (Table 12); assay type: in vivo; conditions: then 24 h PTH
Description: as §1, §2

TCCTCGAGAGGTCTCCTTGC (antisense eT*e[5mC]*e[5mC]*eT*e[5mC]*dG*dA*dG*dA*dG*dG*dT*d[5mC]*dT*d[5mC]*e[5mC]*eT*eT*eG*e[5mC]) [ISIS 181071, 2′-MOE gapmer antisense oligonucleotide targeted to mouse RANK]
Serum calcium concentration ([1]; 0.1 mg/kg, injection 5 days then mini-pump infusion 10 days, no PTH): 9 mg/dL
Serum calcium concentration ([1]; 3 mg/kg, injection 5 days then mini-pump infusion 10 days, no PTH): 9 mg/dL
Serum calcium concentration ([1]; 10 mg/kg daily subcutaneous injection 15 days, no PTH): 9 mg/dL
Serum calcium concentration ([1]; 10 mg/kg, injection 5 days then mini-pump infusion 10 days, no PTH): 9 mg/dL
Serum calcium concentration ([1]; 20 mg/kg, injection 5 days then mini-pump infusion 10 days, no PTH): 9 mg/dL
Serum calcium concentration ([1]; 30 mg/kg daily subcutaneous injection 15 days, no PTH): 8 mg/dL
Serum calcium concentration ([1]; 30 mg/kg, injection 5 days then mini-pump infusion 10 days, no PTH): 9 mg/dL
rise in serum calcium concentration in response to PTH infusion ([2]; mice, total 450 mg/kg, various dosing schedules, 24 hours PTH infusion): can similarly prevent the rise in serum calcium concentration
Serum calcium concentration ([2]; total 450 mg/kg, 30 mg/kg/day 5 days then every fourth day (6 injections over 24 days), then 24 h PTH): 18 mg/dL
Serum calcium concentration ([2]; total 450 mg/kg, 30 mg/kg/day 5 days then every other day (12 injections over 24 days), then 24 h PTH): 16 mg/dL
Serum calcium concentration ([2]; total 450 mg/kg, 30 mg/kg/day 5 days then every third day (8 injections over 24 days), then 24 h PTH): 17 mg/dL
Serum calcium concentration ([2]; total 450 mg/kg, daily injections for 2 weeks, then 24 h PTH): 16 mg/dL
serum calcium ([3]; 0.1 mg/kg, injection 5 days then infusion 13 days, then 24 h PTH): 21 mg/dL
serum calcium ([3]; 3 mg/kg, injection 5 days then infusion 13 days, then 24 h PTH): 20 mg/dL
serum calcium ([3]; 10 mg/kg daily subcutaneous injection 18 days, then 24 h PTH): 18 mg/dL
serum calcium ([3]; 10 mg/kg, injection 5 days then infusion 13 days, then 24 h PTH): 18 mg/dL
serum calcium ([3]; 20 mg/kg, injection 5 days then infusion 13 days, then 24 h PTH): 18 mg/dL
serum calcium ([3]; 30 mg/kg daily subcutaneous injection 18 days, then 24 h PTH): 14 mg/dL
serum calcium ([3]; 30 mg/kg, injection 5 days then infusion 13 days, then 24 h PTH): 17 mg/dL
RANK mRNA % inhibition (normalized to PTH) Proximal Tibia (RANK mRNA [4]; 30 mg/kg daily sc for 2 days): 34%
RANK mRNA % inhibition (normalized to PTH) Proximal Tibia (RANK mRNA [4]; 30 mg/kg daily sc for 3 days): 14%
RANK mRNA % inhibition (normalized to PTH) Proximal Tibia (RANK mRNA [4]; 30 mg/kg daily sc for 5 days): 32%
RANK mRNA % inhibition (normalized to PTH) Proximal Tibia (RANK mRNA [4]; 30 mg/kg daily sc for 7 days): 61%
RANK mRNA % inhibition (normalized to PTH) Proximal Tibia (RANK mRNA [4]; 30 mg/kg daily sc for 10 days): 37%
RANK mRNA % inhibition (normalized to PTH) Proximal Tibia (RANK mRNA [4]; 30 mg/kg daily sc for 14 days): 53%
RANK mRNA % inhibition (normalized to PTH) Proximal Tibia (RANK mRNA [4]; 30 mg/kg daily sc for 21 days): 52%
RANK mRNA expression in the proximal tibia (RANK mRNA [4]; mice, 30 mg/kg daily s.c. for 2, 3, 5, 7, 10, 14, or 21 days, 24 hours PTH infusion): inhibition of RANK mRNA in the proximal tibia
RANK mRNA % inhibition (normalized to PTH) (RANK mRNA [5]; 0.1 mg/kg, injection 5 days then infusion 13 days): 19%
RANK mRNA % inhibition (normalized to PTH) (RANK mRNA [5]; 3 mg/kg, injection 5 days then infusion 13 days): 5%
RANK mRNA % inhibition (normalized to PTH) (RANK mRNA [5]; 10 mg/kg daily subcutaneous injection 18 days): 29%
RANK mRNA % inhibition (normalized to PTH) (RANK mRNA [5]; 10 mg/kg, injection 5 days then infusion 13 days): 23%
RANK mRNA % inhibition (normalized to PTH) (RANK mRNA [5]; 20 mg/kg, injection 5 days then infusion 13 days): 33%
RANK mRNA % inhibition (normalized to PTH) (RANK mRNA [5]; 30 mg/kg daily subcutaneous injection 18 days): 30%
RANK mRNA % inhibition (normalized to PTH) (RANK mRNA [5]; 30 mg/kg, injection 5 days then infusion 13 days): 32%

B1: parathyroid hormone (peptide, UniProt P01270 32-115, looked up)
Parathyroid hormone: SVSEIQLMHNLGKHLNSMERVEWLRKKLQDVHNFVALGAPLAPRDAGSQRPRKKEDNVLVESHEKSLGEADKADVNVLTKAKSQ
notes: parathyroid hormone infused to induce bone resorption in the mouse model
Serum calcium concentration ([1]; control mice, no oligonucleotide, PTH 1 ug/100 g/6 hr, calcitonin 400 ng, after 16 hours): 9 mg/dL
Serum calcium concentration ([2]; control group, PTH alone 1 ug/100 g/6 hr, 24 h): 21 mg/dL
serum calcium ([3]; control mice, no oligonucleotide, PTH 1 ug/100 g/6 hr 24 h, calcitonin 400 ng): 20 mg/dL

From patent publication US20050060764A1, “Mouse model for bone metabolism” (priority 2003, published 2005)
